Assay results reported in PMC7407272, “Induction of Lysosome Membrane Permeabilization as a Therapeutic Strategy to Target Pancreatic Cancer Stem Cells” (Cancers, 2020).

Assays:
Assay in all cases: KINOMEscan
Type in all cases: binding
Details in all cases: read-out: % Ctrl
KIT(V559D) = target: T1, KIT(V559D) (Homo sapiens, UniProt P10721, V559D)
T1 construct: purchased DiscoveRx KINOMEscan

PAK2 = target: T2, PAK2 (Homo sapiens, UniProt Q13177)
T2 construct: purchased DiscoveRx KINOMEscan

IKK-alpha = target: T3, IKK-alpha (Homo sapiens, UniProt O15111)
T3 construct: purchased DiscoveRx KINOMEscan

LZK = target: T4, LZK (Homo sapiens, UniProt O43283)
T4 construct: purchased DiscoveRx KINOMEscan

MAP4K4 = target: T5, MAP4K4 (Homo sapiens, UniProt O95819)
T5 construct: purchased DiscoveRx KINOMEscan

JAK3(JH1D.-cat.) = target: T6, JAK3(JH1D.-cat.) (Homo sapiens, UniProt P52333)
T6 construct: JAK3(JH1D.-cat.); purchased DiscoveRx KINOMEscan

TGFBR2 = target: T7, TGFBR2 (Homo sapiens, UniProt P37173)
T7 construct: purchased DiscoveRx KINOMEscan

CAMK1B = target: T8, CAMK1B (Homo sapiens, UniProt Q6P2M8)
T8 construct: purchased DiscoveRx KINOMEscan

TSSK1B = target: T9, TSSK1B (Homo sapiens, UniProt Q9BXA7)
T9 construct: purchased DiscoveRx KINOMEscan

NEK4 = target: T10, NEK4 (Homo sapiens, UniProt P51957)
T10 construct: purchased DiscoveRx KINOMEscan

HPK1 = target: T11, HPK1 (Homo sapiens, UniProt Q92918)
T11 construct: purchased DiscoveRx KINOMEscan

SIK2 = target: T12, SIK2 (Homo sapiens, UniProt Q9H0K1)
T12 construct: purchased DiscoveRx KINOMEscan

HCK = target: T13, HCK (Homo sapiens, UniProt P08631)
T13 construct: purchased DiscoveRx KINOMEscan

PIK3CG = target: T14, PIK3CG (Homo sapiens, UniProt P48736)
T14 construct: purchased DiscoveRx KINOMEscan

MAP3K4 = target: T15, MAP3K4 (Homo sapiens, UniProt Q9Y6R4)
T15 construct: purchased DiscoveRx KINOMEscan

TTK = target: T16, TTK (Homo sapiens, UniProt P33981)
T16 construct: purchased DiscoveRx KINOMEscan

FLT4 = target: T17, FLT4 (Homo sapiens, UniProt P35916)
T17 construct: purchased DiscoveRx KINOMEscan

LCK = target: T18, LCK (Homo sapiens, UniProt P06239)
T18 construct: purchased DiscoveRx KINOMEscan

ABL1(E255K)-P = target: T19, ABL1(E255K)-P (Homo sapiens, UniProt P00519, E255K)
T19 construct: purchased DiscoveRx KINOMEscan

ERBB3 = target: T20, ERBB3 (Homo sapiens, UniProt P21860)
T20 construct: purchased DiscoveRx KINOMEscan

PIM3 = PIM3 (Homo sapiens, UniProt Q86V86); parameters: purchased DiscoveRx KINOMEscan
KIT(L576P) = target: T21, KIT(L576P) (Homo sapiens, UniProt P10721, L576P)
T21 construct: purchased DiscoveRx KINOMEscan

MYLK = target: T22, MYLK (Homo sapiens, UniProt Q15746)
T22 construct: purchased DiscoveRx KINOMEscan

ERK4 = target: T23, ERK4 (Homo sapiens, UniProt P31152)
T23 construct: purchased DiscoveRx KINOMEscan

p38-alpha = target: T24, p38-alpha (Homo sapiens, UniProt Q16539)
T24 construct: purchased DiscoveRx KINOMEscan

RIOK1 = target: T25, RIOK1 (Homo sapiens, UniProt Q9BRS2)
T25 construct: purchased DiscoveRx KINOMEscan

RIPK2 = target: T26, RIPK2 (Homo sapiens, UniProt O43353)
T26 construct: purchased DiscoveRx KINOMEscan

SLK = target: T27, SLK (Homo sapiens, UniProt Q9H2G2)
T27 construct: purchased DiscoveRx KINOMEscan

KIT(D816V) = target: T28, KIT(D816V) (Homo sapiens, UniProt P10721, D816V)
T28 construct: purchased DiscoveRx KINOMEscan

PAK6 = target: T29, PAK6 (Homo sapiens, UniProt Q9NQU5)
T29 construct: purchased DiscoveRx KINOMEscan

PIK3CA(Q546K) = target: T30, PIK3CA(Q546K) (Homo sapiens, UniProt P42336, Q546K)
T30 construct: purchased DiscoveRx KINOMEscan

YANK2 = target: T31, YANK2 (Homo sapiens, UniProt Q9NY57)
T31 construct: purchased DiscoveRx KINOMEscan

MAP3K3 = target: T32, MAP3K3 (Homo sapiens, UniProt Q99759)
T32 construct: purchased DiscoveRx KINOMEscan

HIPK4 = target: T33, HIPK4 (Homo sapiens, UniProt Q8NE63)
T33 construct: purchased DiscoveRx KINOMEscan

FGFR1 = target: T34, FGFR1 (Homo sapiens, UniProt P11362)
T34 construct: purchased DiscoveRx KINOMEscan

ALK = target: T35, ALK (Homo sapiens, UniProt Q9UM73)
T35 construct: purchased DiscoveRx KINOMEscan

ERN1 = target: T36, ERN1 (Homo sapiens, UniProt O75460)
T36 construct: purchased DiscoveRx KINOMEscan

DAPK2 = target: T37, DAPK2 (Homo sapiens, UniProt Q9UIK4)
T37 construct: purchased DiscoveRx KINOMEscan

PCTK1 = target: T38, PCTK1 (Homo sapiens, UniProt Q00536)
T38 construct: purchased DiscoveRx KINOMEscan

MARK3 = target: T39, MARK3 (Homo sapiens, UniProt P27448)
T39 construct: purchased DiscoveRx KINOMEscan

CASK = target: T40, CASK (Homo sapiens, UniProt O14936)
T40 construct: purchased DiscoveRx KINOMEscan

SNRK = target: T41, SNRK (Homo sapiens, UniProt Q9NRH2)
T41 construct: purchased DiscoveRx KINOMEscan

EPHB1 = target: T42, EPHB1 (Homo sapiens, UniProt P54762)
T42 construct: purchased DiscoveRx KINOMEscan

EGFR(L858R,T790M) = target: T43, EGFR(L858R,T790M) (Homo sapiens, UniProt P00533, L858R/T790M)
T43 construct: purchased DiscoveRx KINOMEscan
T43 sequence (P00533 25-1210 T790M/L858R): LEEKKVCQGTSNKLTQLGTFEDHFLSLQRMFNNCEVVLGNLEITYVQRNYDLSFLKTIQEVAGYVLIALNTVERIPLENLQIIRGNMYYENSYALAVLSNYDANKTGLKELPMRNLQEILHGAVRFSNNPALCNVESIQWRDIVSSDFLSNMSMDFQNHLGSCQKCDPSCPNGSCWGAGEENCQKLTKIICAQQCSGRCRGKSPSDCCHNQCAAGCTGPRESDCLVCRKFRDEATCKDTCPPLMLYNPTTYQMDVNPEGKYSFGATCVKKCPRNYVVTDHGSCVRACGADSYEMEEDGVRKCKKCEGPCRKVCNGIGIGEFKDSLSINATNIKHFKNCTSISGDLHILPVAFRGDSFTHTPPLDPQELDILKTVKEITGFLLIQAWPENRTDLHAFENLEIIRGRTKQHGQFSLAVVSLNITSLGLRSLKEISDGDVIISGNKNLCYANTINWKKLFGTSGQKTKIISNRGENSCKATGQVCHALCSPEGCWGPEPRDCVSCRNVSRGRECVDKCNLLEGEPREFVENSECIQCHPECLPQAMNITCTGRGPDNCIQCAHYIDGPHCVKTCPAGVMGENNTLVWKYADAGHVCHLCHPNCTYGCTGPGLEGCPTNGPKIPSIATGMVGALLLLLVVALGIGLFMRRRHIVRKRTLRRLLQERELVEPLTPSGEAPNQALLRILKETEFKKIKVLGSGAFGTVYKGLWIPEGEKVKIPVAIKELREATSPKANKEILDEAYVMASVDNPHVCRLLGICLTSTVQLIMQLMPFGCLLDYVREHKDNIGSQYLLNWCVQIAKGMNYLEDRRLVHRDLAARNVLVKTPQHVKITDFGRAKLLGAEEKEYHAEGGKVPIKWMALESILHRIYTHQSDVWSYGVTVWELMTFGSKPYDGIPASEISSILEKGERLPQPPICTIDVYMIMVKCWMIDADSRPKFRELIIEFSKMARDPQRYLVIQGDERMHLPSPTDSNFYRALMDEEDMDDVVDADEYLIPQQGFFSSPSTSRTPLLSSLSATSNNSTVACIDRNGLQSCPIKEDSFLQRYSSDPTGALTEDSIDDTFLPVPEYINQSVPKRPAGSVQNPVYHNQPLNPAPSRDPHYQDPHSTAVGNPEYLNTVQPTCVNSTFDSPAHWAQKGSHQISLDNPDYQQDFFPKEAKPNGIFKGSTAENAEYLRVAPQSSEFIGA

T35 sequence (Q9UM73 19-1620): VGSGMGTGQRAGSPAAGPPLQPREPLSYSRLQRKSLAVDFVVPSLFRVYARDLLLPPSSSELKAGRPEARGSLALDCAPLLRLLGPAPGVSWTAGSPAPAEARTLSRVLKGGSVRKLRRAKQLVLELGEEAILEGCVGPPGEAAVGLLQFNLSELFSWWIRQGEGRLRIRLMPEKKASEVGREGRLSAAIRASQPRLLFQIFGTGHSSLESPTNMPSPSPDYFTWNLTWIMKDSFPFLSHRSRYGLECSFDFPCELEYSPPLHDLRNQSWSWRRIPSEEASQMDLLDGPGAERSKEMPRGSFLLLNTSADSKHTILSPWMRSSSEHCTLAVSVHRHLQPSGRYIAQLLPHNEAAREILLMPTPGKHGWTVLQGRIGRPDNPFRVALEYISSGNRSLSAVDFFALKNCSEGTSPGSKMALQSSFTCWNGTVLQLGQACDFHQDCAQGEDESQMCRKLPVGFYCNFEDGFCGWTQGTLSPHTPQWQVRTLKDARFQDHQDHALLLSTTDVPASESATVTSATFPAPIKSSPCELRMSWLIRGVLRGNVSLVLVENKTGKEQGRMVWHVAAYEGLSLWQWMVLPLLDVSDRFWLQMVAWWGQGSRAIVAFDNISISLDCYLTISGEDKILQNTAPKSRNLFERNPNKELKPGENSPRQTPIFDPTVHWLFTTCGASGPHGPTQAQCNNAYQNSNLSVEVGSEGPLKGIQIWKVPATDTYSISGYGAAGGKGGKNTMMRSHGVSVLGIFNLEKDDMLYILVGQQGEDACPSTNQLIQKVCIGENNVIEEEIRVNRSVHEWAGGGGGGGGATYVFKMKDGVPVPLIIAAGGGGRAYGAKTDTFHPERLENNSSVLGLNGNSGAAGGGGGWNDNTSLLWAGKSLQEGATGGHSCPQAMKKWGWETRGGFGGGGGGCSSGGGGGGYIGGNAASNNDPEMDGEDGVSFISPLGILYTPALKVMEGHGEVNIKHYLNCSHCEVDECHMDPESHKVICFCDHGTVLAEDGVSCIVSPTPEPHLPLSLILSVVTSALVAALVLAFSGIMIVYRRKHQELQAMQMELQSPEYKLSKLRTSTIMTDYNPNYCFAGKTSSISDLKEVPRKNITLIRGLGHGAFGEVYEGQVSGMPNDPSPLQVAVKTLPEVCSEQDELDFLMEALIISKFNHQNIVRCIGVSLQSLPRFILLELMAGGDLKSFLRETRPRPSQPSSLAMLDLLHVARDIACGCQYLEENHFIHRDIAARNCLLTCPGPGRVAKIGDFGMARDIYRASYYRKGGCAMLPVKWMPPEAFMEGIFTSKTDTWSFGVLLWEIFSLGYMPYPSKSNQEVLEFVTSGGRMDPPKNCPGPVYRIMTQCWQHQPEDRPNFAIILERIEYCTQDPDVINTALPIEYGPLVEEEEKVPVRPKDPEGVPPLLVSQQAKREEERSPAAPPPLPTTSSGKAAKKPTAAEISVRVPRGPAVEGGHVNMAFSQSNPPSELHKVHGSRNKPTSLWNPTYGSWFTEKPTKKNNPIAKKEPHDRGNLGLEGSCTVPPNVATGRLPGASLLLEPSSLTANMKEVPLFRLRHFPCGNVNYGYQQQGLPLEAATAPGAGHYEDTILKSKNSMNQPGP
T36 sequence (O75460 19-977): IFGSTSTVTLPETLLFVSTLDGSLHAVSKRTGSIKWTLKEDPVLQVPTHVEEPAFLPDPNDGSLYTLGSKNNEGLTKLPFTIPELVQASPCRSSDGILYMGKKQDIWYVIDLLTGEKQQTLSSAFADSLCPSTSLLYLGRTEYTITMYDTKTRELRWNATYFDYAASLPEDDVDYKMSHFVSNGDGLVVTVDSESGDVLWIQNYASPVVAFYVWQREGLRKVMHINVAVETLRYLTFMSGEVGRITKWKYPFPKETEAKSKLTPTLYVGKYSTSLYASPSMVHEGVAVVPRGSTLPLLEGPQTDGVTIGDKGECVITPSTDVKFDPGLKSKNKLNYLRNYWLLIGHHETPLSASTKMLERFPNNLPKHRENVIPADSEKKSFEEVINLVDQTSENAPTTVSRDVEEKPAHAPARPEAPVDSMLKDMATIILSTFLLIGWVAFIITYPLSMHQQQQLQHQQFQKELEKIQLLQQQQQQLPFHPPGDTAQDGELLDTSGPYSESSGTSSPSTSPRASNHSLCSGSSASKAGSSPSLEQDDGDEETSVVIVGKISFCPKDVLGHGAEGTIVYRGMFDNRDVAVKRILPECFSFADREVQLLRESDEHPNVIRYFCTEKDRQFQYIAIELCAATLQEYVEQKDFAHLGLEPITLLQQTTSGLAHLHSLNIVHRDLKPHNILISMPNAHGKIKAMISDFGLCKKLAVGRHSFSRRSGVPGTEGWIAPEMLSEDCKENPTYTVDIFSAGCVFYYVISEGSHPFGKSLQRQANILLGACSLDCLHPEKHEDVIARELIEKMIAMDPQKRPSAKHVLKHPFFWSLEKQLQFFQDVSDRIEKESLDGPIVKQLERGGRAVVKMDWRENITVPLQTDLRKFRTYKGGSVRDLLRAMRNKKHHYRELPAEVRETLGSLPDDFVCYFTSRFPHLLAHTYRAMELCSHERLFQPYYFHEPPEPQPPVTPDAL
T42 sequence (P54762 18-984): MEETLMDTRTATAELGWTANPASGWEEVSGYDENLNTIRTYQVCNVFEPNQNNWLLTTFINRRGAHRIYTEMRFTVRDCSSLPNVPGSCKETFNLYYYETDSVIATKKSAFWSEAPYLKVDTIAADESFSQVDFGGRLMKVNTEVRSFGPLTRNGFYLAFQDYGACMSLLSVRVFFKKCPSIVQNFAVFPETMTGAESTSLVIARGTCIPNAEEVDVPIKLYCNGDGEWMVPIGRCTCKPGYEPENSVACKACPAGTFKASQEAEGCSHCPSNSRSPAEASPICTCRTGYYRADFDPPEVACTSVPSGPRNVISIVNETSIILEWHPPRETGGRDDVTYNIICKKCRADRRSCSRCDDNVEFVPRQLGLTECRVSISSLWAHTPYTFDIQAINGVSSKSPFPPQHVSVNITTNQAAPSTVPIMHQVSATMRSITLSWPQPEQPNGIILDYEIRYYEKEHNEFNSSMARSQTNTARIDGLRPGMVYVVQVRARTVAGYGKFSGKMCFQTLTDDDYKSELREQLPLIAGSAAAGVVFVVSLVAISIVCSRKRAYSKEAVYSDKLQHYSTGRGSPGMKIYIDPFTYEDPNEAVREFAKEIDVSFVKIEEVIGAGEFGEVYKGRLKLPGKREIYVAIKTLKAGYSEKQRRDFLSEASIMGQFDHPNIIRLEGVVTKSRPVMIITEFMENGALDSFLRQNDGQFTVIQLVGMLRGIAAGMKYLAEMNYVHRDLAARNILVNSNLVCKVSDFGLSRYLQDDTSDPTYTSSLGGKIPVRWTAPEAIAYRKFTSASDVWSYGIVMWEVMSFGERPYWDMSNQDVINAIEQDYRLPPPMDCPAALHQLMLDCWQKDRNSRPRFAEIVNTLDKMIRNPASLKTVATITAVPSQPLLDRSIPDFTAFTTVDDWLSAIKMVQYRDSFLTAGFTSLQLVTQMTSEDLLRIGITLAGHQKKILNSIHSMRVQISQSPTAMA

CN1CCC(CNc2ccc3ncc(C(=O)Nc4cccc(OC(F)(F)F)c4)n3n2)CC1 [Cpd 2]
remaining binding at 1 µM (KIT(V559D)): 95%
remaining binding at 1 µM (PAK2): 94%
remaining binding at 1 µM (IKK-alpha): 97%
remaining binding at 1 µM (LZK): 92%
remaining binding at 1 µM (MAP4K4): 89%
remaining binding at 1 µM (JAK3(JH1D.-cat.)): 100%
remaining binding at 1 µM (TGFBR2): 100%
remaining binding at 1 µM (CAMK1B): 97%
remaining binding at 1 µM (TSSK1B): 95%
remaining binding at 1 µM (NEK4): 100%
remaining binding at 1 µM (HPK1): 92%
remaining binding at 1 µM (SIK2): 97%
remaining binding at 1 µM (HCK): 96%
remaining binding at 1 µM (PIK3CG): 100%
remaining binding at 1 µM (MAP3K4): 86%
remaining binding at 1 µM (TTK): 63%
remaining binding at 1 µM (FLT4): 100%
remaining binding at 1 µM (LCK): 77%
remaining binding at 1 µM (ABL1(E255K)-P): 85%
remaining binding at 1 µM (ERBB3): 100%
remaining binding at 1 µM (PIM3): 18%
remaining binding at 1 µM (KIT(L576P)): 88%
remaining binding at 1 µM (MYLK): 100%
remaining binding at 1 µM (ERK4): 100%
remaining binding at 1 µM (p38-alpha): 96%
remaining binding at 1 µM (RIOK1): 76%
remaining binding at 1 µM (RIPK2): 100%
remaining binding at 1 µM (SLK): 79%
remaining binding at 1 µM (KIT(D816V)): 89%
remaining binding at 1 µM (PAK6): 98%
remaining binding at 1 µM (PIK3CA(Q546K)): 89%
remaining binding at 1 µM (YANK2): 100%
remaining binding at 1 µM (MAP3K3): 96%
remaining binding at 1 µM (HIPK4): 88%
remaining binding at 1 µM (FGFR1): 100%
remaining binding at 1 µM (ALK): 100%
remaining binding at 1 µM (ERN1): 79%
remaining binding at 1 µM (DAPK2): 89%
remaining binding at 1 µM (PCTK1): 100%
remaining binding at 1 µM (MARK3): 100%
remaining binding at 1 µM (CASK): 93%
remaining binding at 1 µM (SNRK): 98%
remaining binding at 1 µM (EPHB1): 97%
remaining binding at 1 µM (EGFR(L858R,T790M)): 100%
